Laboratory results published in patent publication US20040072770A1, “Methods for specifically inhibiting histone deacetylase-7 and 8” (priority 2002, published 2004).

Assays:
HDAC-6 = biological target: T1, HDAC-6 (Homo sapiens, UniProt Q9UBN7); experiment: Enzyme inhibitory activity, HD6; format: biochemical; settings: read-out: IC50 HD 6
T1 sequence (Q9UBN7 1-1215): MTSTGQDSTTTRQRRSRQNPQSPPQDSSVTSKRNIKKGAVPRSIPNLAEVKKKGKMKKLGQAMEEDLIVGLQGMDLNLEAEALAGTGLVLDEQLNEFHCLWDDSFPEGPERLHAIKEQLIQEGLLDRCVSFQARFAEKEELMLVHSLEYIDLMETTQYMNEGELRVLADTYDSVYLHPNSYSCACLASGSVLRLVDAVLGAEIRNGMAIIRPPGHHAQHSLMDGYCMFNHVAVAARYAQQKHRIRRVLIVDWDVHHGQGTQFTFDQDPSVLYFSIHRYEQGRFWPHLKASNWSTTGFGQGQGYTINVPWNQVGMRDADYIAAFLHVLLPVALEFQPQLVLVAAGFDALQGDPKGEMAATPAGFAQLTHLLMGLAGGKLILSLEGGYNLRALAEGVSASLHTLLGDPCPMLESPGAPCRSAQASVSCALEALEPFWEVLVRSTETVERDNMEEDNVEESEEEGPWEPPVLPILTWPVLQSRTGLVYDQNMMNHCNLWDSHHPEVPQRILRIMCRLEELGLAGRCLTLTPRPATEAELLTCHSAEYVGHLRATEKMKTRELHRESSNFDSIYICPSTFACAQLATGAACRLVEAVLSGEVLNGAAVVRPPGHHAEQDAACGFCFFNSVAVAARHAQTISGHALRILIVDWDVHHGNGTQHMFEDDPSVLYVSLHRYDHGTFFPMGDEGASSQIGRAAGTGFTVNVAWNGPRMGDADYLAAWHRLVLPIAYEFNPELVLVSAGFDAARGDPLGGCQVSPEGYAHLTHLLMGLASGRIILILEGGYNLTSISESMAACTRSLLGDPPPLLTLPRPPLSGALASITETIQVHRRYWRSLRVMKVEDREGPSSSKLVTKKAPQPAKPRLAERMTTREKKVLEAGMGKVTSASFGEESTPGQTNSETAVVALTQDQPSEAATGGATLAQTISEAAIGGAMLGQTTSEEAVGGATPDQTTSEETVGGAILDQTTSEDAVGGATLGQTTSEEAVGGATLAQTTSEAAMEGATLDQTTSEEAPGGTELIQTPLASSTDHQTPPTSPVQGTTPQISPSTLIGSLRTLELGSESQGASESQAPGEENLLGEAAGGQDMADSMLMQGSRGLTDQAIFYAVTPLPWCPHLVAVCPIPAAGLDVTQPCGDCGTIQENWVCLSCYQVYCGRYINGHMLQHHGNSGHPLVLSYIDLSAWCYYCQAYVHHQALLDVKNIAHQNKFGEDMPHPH

[1] = system: colon cancer cells HCT116; experiment: MTT assay, HCT116; format: cell-based, human; settings: Homo sapiens, HCT-116; 72 hours
Experimental: (§1) Effects of HDAC isotype-specific small molecule inhibitors on growth inhibition of various human cancer cells (from ATCC) in vitro were determined by MTT assays. Briefly, cells seeded in 96-well plates were incubated for 72 hours at 37° C. in a 5% CO2 incubator. MTT (Sigma) was added at a final concentration of 0.5 mg/ml and incubated with the cells for 4 hours before an equal volume of solubilization buffer (50% N,N-dimethylformamide, 20% SDS, pH 4.7) was added onto cultured cells. After overnight incubation, solubilized dye was quantified by colorimetric reading at […] using a reference at 630 nM. OD values were converted to cell numbers according to a standard growth curve of the relevant cell line. The concentration which reduces cell numbers to 50% of those of DMSO-treated cells is determined as MTT IC50. In Table 4, IC50s of several HDAC7 or HDAC8 inhibitors in MTT assays in various human cancer cell lines were listed. They include colon cancer cells HCT116 and SW48, lung cancer cells A549 and H446, breast cancer cells MCF-7 and MDAmb231, a prostate cancer cell line Du145 and a bladder cancer cell line T24.

[2] = system: prostate cancer cell line Du145; experiment: MTT assay, Du145; format: cell-based; settings: Homo sapiens, DU-145; 72 hours
Experimental: as §1

[3] = system: breast cancer cells MCF-7; experiment: MTT assay, MCF-7; format: cell-based; settings: Homo sapiens, MCF7; 72 hours
Experimental: as §1

colon cancer cells SW48 = experiment: MTT assay, SW48; format: cell-based; settings: Homo sapiens, 72 hours, read-out: MTT IC50 SW 48
Experimental: as §1

[4] = system: colon carcinoma cells SW48 tumors; experiment: Tumor growth in a mouse model, SW48; format: in vivo; settings: (6,0,O): oral; BALB/c nude mice; vs vehicle-treated
Experimental: (§2) Female BALB/c nude mice are obtained from Charles River Laboratories (Charles River, N.Y.) and used at age 8-10 weeks. Human tumor cells (2×10^6, colon carcinoma cells HCT116 or SW48, lung carcinoma cells A549, pancreatic carcinoma Panc-1, ovarian carcinoma cells ES2, or prostate carcinoma cells Du145) are injected subcutaneously in the animal's flank and allowed to form solid tumors. Tumor fragments are serially passaged a minimum of three times, then approximately 30 mg tumor fragments are implanted subcutaneously through a small surgical incision under general anaesthesia. Small molecule inhibitor administration by intraperotineal or oral administration was initiated when the tumors reached a volume of 100 mm^3. For intraperotineal administration, small molecule inhibitors of HDAC-7, HDAC-8 or both, or in combination with small molecule inhibitors of HDAC-1 (20-60 mg/kg body weight/day) are dissolved in 100% DMSO and administered daily by injection. For oral administration, small molecule inhibitors of HDAC (60 mg/kg body weight) are dissolved in saline acidified with 0.2 N HCl. Tumor volumes are monitored twice weekly up to 20 days. Each experimental group contains at least 6-8 animals. Percentage inhibition is calculated using volume of tumor from vehicle-treated mice as controls. […]

[5] = system: lung carcinoma cells A549 tumors; experiment: Tumor growth in a mouse model, A549; format: in vivo; settings: BALB/c nude mice, vs vehicle-treated
Experimental: as §2

[6] = system: pancreatic carcinoma Panc-1 tumors; experiment: Tumor growth in a mouse model, Panc-1; format: in vivo; settings: BALB/c nude mice, vs vehicle-treated
Experimental: as §2

[7] = system: prostate carcinoma cells Du145 tumors; experiment: Tumor growth in a mouse model, Du145; format: in vivo; settings: (60,I): 60 mg/kg body weight/day, intraperitoneal; BALB/c nude mice; vs vehicle-treated
Experimental: as §2

IC50 (HDAC-6) | IC50 [1] | IC50 [2] | IC50 [3] | IC50 (colon cancer cells SW48) | Compound | % of Inhibition of Tumor Growth in Vivo SW 48 [4] | % of Inhibition of Tumor Growth in Vivo A 549 ([5]; (5,0,O): oral) | % of Inhibition of Tumor Growth in Vivo PANC-1 ([6]; (60,O): 60 mg/kg body weight, oral) | % of Inhibition of Tumor Growth in Vivo DU 145 [7] | % of Inhibition of Tumor Growth in Vivo A 549 ([5]; (30,I): 30 mg/kg body weight/day, intraperitoneal) | % of Inhibition of Tumor Growth in Vivo PANC-1 ([6]; (3,0,I): intraperitoneal)
> 50000 nM | 4000 nM | 2000 nM | 6000 nM | 10000 nM | Cc1ccc(S(=O)(=O)Nc2ccc(/C=C/C(=O)Nc3ccccc3N)cc2)cc1 [Compound 5, N-(2-Aminophenyl)-3-[4-(4-methylbenzenesulfonylamino)-phenyl]-acrylamide] |  |  |  |  |  | 
> 50000 nM | 400 nM | 2000 nM | 3000 nM | 2000 nM | COc1ccc(NCc2ccc(C(=O)Nc3ccccc3N)cc2)cc1OC [Compound 17, N-(2-Aminophenyl)-4-[(3,4-dimethoxyphenylamino)-methyl]-benzamide] | 68(6,0,O) % | 67(5,0,O) % | 78(60,O) % | >50(60,I) % |  | 
> 50000 nM | 100 nM | 500 nM | 700 nM | 800 nM | COc1ccc(-c2ccnc(NCc3ccc(C(=O)Nc4ccccc4N)cc3)n2)cc1OC [Compound 21, N-(2-Amino-phenyl)-4-{[4-(3,4-dimethoxy-phenyl)-pyrimidin-2-ylamino]-methyl}-benzamide] |  |  |  |  | >50(30,I) % | >50(3,0,I) %

Compound | IC50 (HDAC-6) | IC50 [1] | IC50 [2] | IC50 [3] | IC50 (colon cancer cells SW48) | % of Inhibition of Tumor Growth in Vivo SW 48 [4] | % of Inhibition of Tumor Growth in Vivo A 549 ([5]; (5,0,O): oral) | % of Inhibition of Tumor Growth in Vivo PANC-1 ([6]; (60,O): 60 mg/kg body weight, oral) | % of Inhibition of Tumor Growth in Vivo DU 145 [7] | % of Inhibition of Tumor Growth in Vivo A 549 ([5]; (30,I): 30 mg/kg body weight/day, intraperitoneal) | % of Inhibition of Tumor Growth in Vivo PANC-1 ([6]; (3,0,I): intraperitoneal)
Nc1ccccc1NC(=O)c1ccc(CSc2nc3ccccc3[nH]2)cc1 [Compound 16, N-(2-Amino-phenyl)-4-(1H-benzimidazol-2-ylsulfanylmethyl)-benzamide] | > 50000 nM | 200 nM | 700 nM | 3000 nM | 2000 nM |  |  |  |  |  | 
